The source of these data is a melting point compilation (Tetko et al.).

Each structure is given as a SMILES string.

Regarding `O=C(CCl)Nc1ccc(Cl)cc1C(=O)c1ccccc1Cl`, the melting point (commonly the temperature, or range, at which the solid turns liquid) is 161 to 163 °C.

The molecule `CSc1nnc(C(C)(C)C)c(=O)n1N=CC(C)C` had a melting point of 159 °C.

`CC(C)(C)OC(=O)C(Cl)(Cl)Cl`: the melting point was 25.5 °C.

As to `CC1CC(OC(=O)c2ccccc2)CC(C)(C)N1` (stereo not given), the melting point amounted to 70.5 °C.

Turning to `CC12CCC(OC=O)CC1CCC1C2CCC2(C)C1CCC2(O)C#Cc1ccccc1` (stereo not given), the melting point came to 205 °C.

Regarding `O=C(ON1C(=O)CCC1=O)ON1C(=O)CCC1=O`, the melting point worked out at 190 °C.

For the molecule `CC1CCCCC1(C)C` (stereo not given), the melting point was -29 °C.

For the molecule `COc1cc(OC)c2cc(C(=O)c3cccc4ccccc34)c(=O)oc2c1`, the melting point turned out to be 210 °C.

In turn, `CN1c2ccccc2Sc2ccccc21` gave a melting point of 102 °C.

For `NC(=S)Nc1cccc(Br)c1`, the melting point lay in the range of 150 to 151 °C.

`CNC(=O)N(C)c1nnc(C(F)(F)F)s1` gave a melting point of 136 °C.

`Cc1cc(C)c2c(c1)CC(C)(C)C(=O)OC2=O` came in with a melting point of 99 to 100 °C.

The molecule `N#Cc1ccnc(N2CCCCC2)c1` had a melting point of 55 to 57 °C.

For the molecule `CCCCCCCCCCCCCCCC(CCCC)c1ccccc1` (stereo not given), the melting point came to 30.2 °C.

The molecule `O=S(=O)(N(c1ccccc1)S(=O)(=O)C(F)(F)F)C(F)(F)F` showed a melting point of 99 to 105 °C.

`O=S(=O)(Cl)c1cc2ccccc2o1`: the melting point was 79 to 81 °C.

Take `Cc1ccc(C(=O)COc2c(C(=O)c3ccc(Cl)c(C)c3Cl)c(C)nn2C)cc1`: the melting point was determined as 133 °C.

`NCCOP(=O)(O)O` showed a melting point of 242 °C.

Regarding `Cc1ccc(Nc2ccc([N+](=O)[O-])cc2[N+](=O)[O-])cc1`, the melting point amounted to 140 °C.

As to `CCCCCCCCCCC#N`, the melting point is -6 °C.

Regarding `COc1cccc(C=C(C(=O)O)C(=Cc2cccc(OC)c2)C(=O)O)c1`, the melting point was 182 °C.

In turn, `CN(C)c1ccc(/C=C(\C#N)c2nc3ccccc3n2C)cc1` yielded a melting point of 151 °C.

In turn, `c1ccc(-c2nccnc2-c2ccccc2)cc1` returned a melting point of 121 °C.

For `NC(=O)CF`, the melting point was 108 °C.

For `CCOC(=O)c1sc(C2CCN(C(=O)OC(C)(C)C)CC2)nc1C`, the melting point turned out to be 47 °C.

`COc1cccc(C)c1C` gave a melting point of 29 °C.

Regarding `Cc1ccc(Cc2ccc(CP(=O)(c3ccccc3)c3ccccc3)o2)o1`, the melting point was 220 to 221 °C.

In turn, `Cc1ccc2cc3ccccc3cc2c1` had a melting point of 209 °C.

In turn, `O=C1OC(c2ccccc2)=NC1=Cc1ccc(-c2ccc([N+](=O)[O-])cc2)o1` displayed a melting point of 208 °C.

`COc1cc(C=C2C(=O)NN=C2c2c(O)c3ccccc3n(C)c2=O)cc(OC)c1OC` gave a melting point of 196 °C.

As for `C=C1CC(=CC)C(=O)OC2CCN3CC=C(COC(=O)C1(C)O)C23` (stereo not given), the melting point worked out at 218 °C.

In turn, `Cc1c(CN2CCOC(c3ccccc3)C2C)c(=O)n(-c2ccccc2)n1C` (stereo not given) showed a melting point of 149 °C.

For the molecule `Cc1cc(C)c(NC(=O)C(Br)C(C)(C)C)c(C)c1` (stereo not given), the melting point lay within 185 to 188 °C.

Regarding `CC(=O)Oc1ccccc1C(=O)O`, the melting point came out at 142 °C.

Consider `CCCC(=O)OC1(C(=O)CCl)C(C)CC2C3CCC4=CC(=O)C=CC4(C)C3(F)C(=O)CC21C` (stereo not given), for which the melting point amounted to 95 °C.

Molecule `Nc1nc(Cl)c2ncn(C3OC(CO)C(O)C3O)c2n1` (stereo not given) showed a melting point of 166 to 167 °C.

With `O=S(=O)(Cl)c1ccc(-c2ccccc2)cc1`, the melting point is 115 °C.

For the molecule `O=[N+]([O-])c1ccc(NCc2ccccc2)c2nonc12`, the melting point was in the range of 206 to 209 °C.

`COc1ccc(N2C(=O)C3ON=C(C(=O)c4ccco4)C3C2=O)cc1` (stereo not given) returned a melting point of 137 °C.

As for `c1coc(CSCc2ccco2)c1`, the melting point turned out to be 31 °C.
